Measured values reported in patent US7550469B2, “Heterocyclic amide derivatives and their use as dopamine D3 receptor ligands” (Aventis Pharmaceuticals Inc., priority 2001, dated 2009).

How the values were obtained:
[1] = tested on: Alpha-1 adrenergic receptors from rat brain cortex; experiment: [3H]Prazosin binding to alpha-1 adrenergic receptors from rat brain cortex (Protocol 4); settings: for r-α1 % Inh: r = rat, Inh @ 1 μM
Text: [^3H]Prazosin Binding to Alpha-1 Adrenergic Receptors from Rat Brain Cortex
Objective: This in vitro assay is designed as a screen to identify compounds displaying a affinity for the a, adrenoceptor subtype in membranes from rat cortex. It measures the ability of the test compounds to displace [^3H]prazosin from the α1 sites.
Membrane Preparation: Rat brain tissue can be obtained from either fresh (male Wistar rats; 200-250 g) or frozen (male Sprague-Dawley 200-250 g from Harlan; cat. #BT-403) stocks. The cortex is dissected, homogenized in 50 vol (wet weight) ice-cold 50 mM Tris buffer (pH 7.7 at 25° C.). The homogenate is centrifuged at 48,000 g for 10 min, the pellet is resuspended in 50 mM Tris buffer and centrifuged a second time. The second pellet (P2) is resuspended to yield a concentration of 115 mg wet weight per 10 ml. […] Membranes should be mixed just before addition to ensure an even suspension. […] This is diluted to a 0.5 mM stock in dH2O. Serial dilutions in Buffer A are made from which 50 μl additions to the plate are made in duplicate in order to achieve the final concentrations desired. Typically, one 96 well plate is used to evaluate 11 compounds at 4 concentrations (10^−6-10^−9 M) in duplicate. Total binding and nonspecific binding are determined in quadruplicate. Usually one standard is run with each assay. • [^3H]Prazosin is made up in Buffer A such that when 50 μl are added per well the final concentration is […] in a final assay volume of 200 μl. The final concentration should be verified by running a sample in a scintillation counter prior to adding the [^3H]prazosin to the 96 well plate. Note: The radioactivity should be prepared just before the additions are made so that it is not allowed to sit on the bench for very long. • Packard GF/B Plate Pretreatment: The filter plates are presoaked for at least 30 min in ice cold Buffer B containing 0.05% polyethyleneimine (200 μl/200 ml) to maximize filtration efficiency and minimize filter blank binding. • Incubation & Filtration: Once buffer, compounds, [^3H]prazosin and membrane have been added (and mixed), the 96 well plates are incubated for 40 min at 37° C. and spaced 3-5 min apart. At 40 min, the plates are filtered using a Tomtec Automated Cell Harvester. Filtration is immediately followed by washes of ice cold Buffer B (total vol. ˜7 ml). • Drying and Counting: Each filter plate is dried under a heat lamp for 15 min. The back of the plate is sealed and 40 μl of Packard microscint fluid are added per well. Using Packard film, each plate is heat sealed prior to being counted in a Packard Topcount Scintillation counter. A program has been written that counts each plate twice sending DPM, CPM and TSIS data to disk and printer. • Analysis of Results: Raw DPM and CPM data are captured on disk and are imported into one of several software packages (Graphpad Prism Ver 2.0, Excel) residing on the LAN. Specific binding is defined as the difference between total binding and the binding in the presence of 10 μM phentolamine. Total binding is less than 10% of the total added ligand. Software using one-site competition curve analysis is employed in the calculation of IC50 and KI (Cheng-Prusoff equation, 1973). The top and bottom of the non-linear regression are held constant at 0% and 100% inhibition. The percent inhibition at each drug concentration is the mean of duplicate determinations.

[2] = target: T1, human dopamine D3 receptor (Homo sapiens, UniProt P35462); experiment: Microphysiometer test of functional activity in CHO cells expressing human dopamine D3 receptor (quinpirole-induced acidification rate); type: cell-based; settings: test compound 10 nM, 100 nM, 1 uM; quinpirole 10 nM
T1 construct: expressed in transfected cells; host or cells: CHO cells
T1 sequence (P35462 whole entry): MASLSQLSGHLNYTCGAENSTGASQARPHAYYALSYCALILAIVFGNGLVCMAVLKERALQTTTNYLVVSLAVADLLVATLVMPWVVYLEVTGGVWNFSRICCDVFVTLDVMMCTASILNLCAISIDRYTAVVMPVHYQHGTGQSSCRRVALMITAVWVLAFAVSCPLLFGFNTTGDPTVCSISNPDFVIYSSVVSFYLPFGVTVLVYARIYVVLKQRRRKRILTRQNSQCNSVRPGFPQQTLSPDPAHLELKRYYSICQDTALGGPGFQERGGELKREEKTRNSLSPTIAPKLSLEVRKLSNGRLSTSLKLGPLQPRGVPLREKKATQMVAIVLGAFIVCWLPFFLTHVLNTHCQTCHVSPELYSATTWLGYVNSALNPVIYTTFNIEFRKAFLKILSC
Description: The functional activity of compounds of the invention (i.e. whether they are antagonists, agonists or partial agonists) can readily be determined using the microphysiometer test method that follows:
Chinese Hamster Ovary (CHO) cells, expressing the human dopamine D3 receptor, were grown on the surface of a capsule cup. Cups are assembled and placed on the microphysiometer, and buffer (Dulbecco's Modified Eagle's Medium without sodium bicarbonate and without serum) is perfused through the cup assembly until a stable baseline is achieved (4 hours). Buffer perfusion rate and solution changes are controlled by a computer. Intracellular acidification rate is measured in each of the 8 cup assemblies and recorded by the computer. Buffer containing test compound (10 nM, 100 nM, and 1 uM) is perfused through the cup assembly for 20 min. Buffer containing quinpirole (10 nM) (a D3 agonist) and test compound (same concentrations) is perfused for an additional 1 min. This is followed by a recovery period of 10-60 min where buffer alone was perfused through the cups. Quinpirole increases the rate of acidification. If the test compound is a D3 antagonist, this increase will be inhibited in a concentration dependent manner.

Row | SMILES | r-α1 % Inh [1] [%] | also measured
1 | O=C(NCCCCN1CCN(c2csc3cc(C(F)(F)F)ccc23)CC1)c1cc2ccccc2s1 [814238A] |  | rat alpha 1 % I ([1]; @ 10 uM): 50% @ 10 uM
2 | CCOc1ccc(C(=O)NCCCCN2CCN(c3csc4cc(C(F)(F)F)ccc34)CC2)cc1 [compound 815541] |  | functional activity at D3 (inhibition of quinpirole-induced increase of acidification rate) [2]: D3 antagonists
3 | O=C(NCCCCN1CCCN(c2csc3cc(F)ccc23)CC1)c1ccc(OC(F)(F)F)cc1 [compound 822152] | 14 | 
4 | O=C(NCCCCN1CCCN(c2csc3cc(F)ccc23)CC1)c1cccc(F)c1 [compound 822154] | 0 | 
5 | COc1ccccc1C(=O)NCCCCN1CCCN(c2csc3cc(F)ccc23)CC1 [compound 822157] | 41 | 
6 | CC(C)(C)c1ccc(C(=O)NCCCCN2CCCN(c3csc4cc(F)ccc34)CC2)cc1 [compound 822198] | 0 | 
